Source: article PMC7442682 (Chemical biology & drug design, 2020)

Legend:
5-HT6 receptor = 5-HT6 receptor (Homo sapiens, UniProt P50406); test: PDSP radioligand binding, 5-HT6 receptor; settings: for 5-HT6 selectivity versus the other receptors tested: versus all other dopamine, serotonin and adrenergic receptors tested
D1 receptor = D1 receptor (Homo sapiens, UniProt P21728); test: PDSP radioligand binding, dopamine D1 receptor
α2A adrenergic receptor = target: T1, α2A adrenergic receptor (Homo sapiens, UniProt P08913); test: PDSP radioligand binding, α2A adrenergic receptor
T1 sequence (P08913 1-465): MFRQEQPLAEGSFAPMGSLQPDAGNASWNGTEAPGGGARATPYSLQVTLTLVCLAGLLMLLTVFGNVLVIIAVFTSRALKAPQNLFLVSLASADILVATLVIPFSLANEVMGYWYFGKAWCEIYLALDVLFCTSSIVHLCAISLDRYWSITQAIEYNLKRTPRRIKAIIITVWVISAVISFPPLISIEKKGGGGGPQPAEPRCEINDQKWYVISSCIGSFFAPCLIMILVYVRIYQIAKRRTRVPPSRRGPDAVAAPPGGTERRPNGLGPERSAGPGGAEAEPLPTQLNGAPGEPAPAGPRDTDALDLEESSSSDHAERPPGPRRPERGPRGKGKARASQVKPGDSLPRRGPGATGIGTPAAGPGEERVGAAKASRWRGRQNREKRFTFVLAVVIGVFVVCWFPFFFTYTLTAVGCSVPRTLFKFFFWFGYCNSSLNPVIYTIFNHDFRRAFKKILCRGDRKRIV

D5 receptor = D5 receptor (Homo sapiens, UniProt P21918); test: PDSP radioligand binding, dopamine D5 receptor; settings: read-out: Ki D5
D3 receptor = D3 receptor (Homo sapiens, UniProt P35462); test: PDSP radioligand binding, dopamine D3 receptor
5-HT1B receptor = 5-HT1B receptor (Homo sapiens, UniProt P28222); test: PDSP radioligand binding, 5-HT1B receptor
α1B adrenergic receptor = target: T2, α1B adrenergic receptor (Homo sapiens, UniProt P35368); test: PDSP radioligand binding, α1B adrenergic receptor; settings: for inhibition at 10 µM: read-out: Ki α1B
T2 sequence (P35368 1-520): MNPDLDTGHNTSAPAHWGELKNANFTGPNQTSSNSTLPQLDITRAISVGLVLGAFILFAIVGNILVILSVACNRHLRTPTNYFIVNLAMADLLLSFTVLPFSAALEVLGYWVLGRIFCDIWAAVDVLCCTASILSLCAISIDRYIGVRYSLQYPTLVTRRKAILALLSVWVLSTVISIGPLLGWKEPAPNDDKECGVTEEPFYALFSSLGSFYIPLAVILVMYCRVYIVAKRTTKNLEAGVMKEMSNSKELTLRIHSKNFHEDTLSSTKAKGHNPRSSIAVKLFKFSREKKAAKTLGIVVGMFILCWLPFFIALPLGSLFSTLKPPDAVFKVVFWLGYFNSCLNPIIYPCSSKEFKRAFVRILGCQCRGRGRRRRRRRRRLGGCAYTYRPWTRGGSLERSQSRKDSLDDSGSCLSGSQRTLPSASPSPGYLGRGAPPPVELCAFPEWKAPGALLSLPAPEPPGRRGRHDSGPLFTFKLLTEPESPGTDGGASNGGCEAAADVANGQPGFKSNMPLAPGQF

α1A adrenergic receptor = target: T3, α1A adrenergic receptor (Homo sapiens, UniProt P35348); test: PDSP radioligand binding, α1A adrenergic receptor
T3 sequence (P35348 1-466): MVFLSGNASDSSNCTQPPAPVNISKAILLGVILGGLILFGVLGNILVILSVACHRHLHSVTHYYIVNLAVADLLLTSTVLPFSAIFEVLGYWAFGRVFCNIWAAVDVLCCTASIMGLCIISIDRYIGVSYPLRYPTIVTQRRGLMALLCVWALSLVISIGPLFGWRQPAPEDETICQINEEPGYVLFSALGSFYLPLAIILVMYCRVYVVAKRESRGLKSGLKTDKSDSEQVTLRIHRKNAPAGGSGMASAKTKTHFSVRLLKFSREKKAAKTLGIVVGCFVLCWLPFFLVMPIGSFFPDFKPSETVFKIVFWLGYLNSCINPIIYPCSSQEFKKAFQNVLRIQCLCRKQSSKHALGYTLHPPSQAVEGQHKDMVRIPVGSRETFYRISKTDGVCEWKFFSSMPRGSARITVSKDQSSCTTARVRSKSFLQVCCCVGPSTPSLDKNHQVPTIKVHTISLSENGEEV

5-HT5A receptor = 5-HT5A receptor (Homo sapiens, UniProt P47898); test: PDSP radioligand binding, 5-HT5A receptor
D4 receptor = target: T4, D4 receptor (Homo sapiens, UniProt P21917); test: PDSP radioligand binding, dopamine D4 receptor; settings: read-out: Ki D4
T4 sequence (P21917 1-419): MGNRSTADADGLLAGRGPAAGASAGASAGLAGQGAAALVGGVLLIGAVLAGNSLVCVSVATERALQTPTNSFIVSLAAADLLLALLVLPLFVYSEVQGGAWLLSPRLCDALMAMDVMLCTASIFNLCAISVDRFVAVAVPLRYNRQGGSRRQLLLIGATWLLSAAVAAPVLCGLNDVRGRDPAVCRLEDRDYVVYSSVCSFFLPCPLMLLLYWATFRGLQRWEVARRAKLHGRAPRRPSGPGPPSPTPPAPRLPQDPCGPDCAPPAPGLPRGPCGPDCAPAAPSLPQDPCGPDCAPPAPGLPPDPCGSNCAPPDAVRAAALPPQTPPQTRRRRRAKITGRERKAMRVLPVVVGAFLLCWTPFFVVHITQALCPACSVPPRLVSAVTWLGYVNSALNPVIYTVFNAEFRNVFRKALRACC

α2C adrenergic receptor = target: T5, α2C adrenergic receptor (Homo sapiens, UniProt P18825); test: PDSP radioligand binding, α2C adrenergic receptor
T5 sequence (P18825 1-462): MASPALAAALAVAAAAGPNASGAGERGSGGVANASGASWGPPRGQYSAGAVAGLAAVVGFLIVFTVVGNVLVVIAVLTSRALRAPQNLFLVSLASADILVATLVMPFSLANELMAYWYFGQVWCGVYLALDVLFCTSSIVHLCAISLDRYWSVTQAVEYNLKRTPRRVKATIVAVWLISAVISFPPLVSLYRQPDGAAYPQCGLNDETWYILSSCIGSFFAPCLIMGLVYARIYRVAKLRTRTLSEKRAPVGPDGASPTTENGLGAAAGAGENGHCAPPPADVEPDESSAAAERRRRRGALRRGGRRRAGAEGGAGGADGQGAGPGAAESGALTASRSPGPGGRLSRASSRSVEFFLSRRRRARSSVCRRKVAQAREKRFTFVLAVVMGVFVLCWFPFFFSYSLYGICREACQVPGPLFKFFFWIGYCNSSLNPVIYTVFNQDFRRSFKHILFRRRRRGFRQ

α2B adrenergic receptor = target: T6, α2B adrenergic receptor (Homo sapiens, UniProt P18089); test: PDSP radioligand binding, α2B adrenergic receptor
T6 sequence (P18089 1-450): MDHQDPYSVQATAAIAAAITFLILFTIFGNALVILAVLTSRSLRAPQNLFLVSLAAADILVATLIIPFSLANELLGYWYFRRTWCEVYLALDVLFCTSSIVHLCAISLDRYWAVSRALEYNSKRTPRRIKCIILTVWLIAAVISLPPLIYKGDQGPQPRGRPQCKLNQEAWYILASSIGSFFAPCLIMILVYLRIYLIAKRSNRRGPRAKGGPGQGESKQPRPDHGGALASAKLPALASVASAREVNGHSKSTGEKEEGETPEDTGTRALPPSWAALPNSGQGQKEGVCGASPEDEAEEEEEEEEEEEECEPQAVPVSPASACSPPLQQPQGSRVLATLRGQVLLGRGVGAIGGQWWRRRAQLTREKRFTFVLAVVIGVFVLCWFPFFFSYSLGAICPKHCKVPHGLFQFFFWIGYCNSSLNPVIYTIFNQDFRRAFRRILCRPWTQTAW

5-HT1A receptor = target: T7, 5-HT1A receptor (Homo sapiens, UniProt P08908); test: PDSP radioligand binding, 5-HT1A receptor
T7 sequence (P08908 1-422): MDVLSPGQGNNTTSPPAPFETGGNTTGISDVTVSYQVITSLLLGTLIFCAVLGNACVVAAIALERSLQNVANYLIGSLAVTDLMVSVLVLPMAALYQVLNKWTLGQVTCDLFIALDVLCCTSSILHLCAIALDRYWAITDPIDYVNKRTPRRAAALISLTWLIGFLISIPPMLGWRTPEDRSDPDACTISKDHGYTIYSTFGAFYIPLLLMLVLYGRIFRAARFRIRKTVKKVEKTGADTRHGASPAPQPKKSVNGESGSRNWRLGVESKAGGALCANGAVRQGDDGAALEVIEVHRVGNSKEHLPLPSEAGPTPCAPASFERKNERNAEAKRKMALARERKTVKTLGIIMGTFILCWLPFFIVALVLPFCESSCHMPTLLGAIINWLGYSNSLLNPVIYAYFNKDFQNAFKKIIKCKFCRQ

5-HT2A receptor = 5-HT2A receptor (Homo sapiens, UniProt P28223); test: PDSP radioligand binding, 5-HT2A receptor
D2 receptor = D2 receptor (Homo sapiens, UniProt P14416); test: PDSP radioligand binding, dopamine D2 receptor
Sequence of D2 receptor (P14416 whole entry): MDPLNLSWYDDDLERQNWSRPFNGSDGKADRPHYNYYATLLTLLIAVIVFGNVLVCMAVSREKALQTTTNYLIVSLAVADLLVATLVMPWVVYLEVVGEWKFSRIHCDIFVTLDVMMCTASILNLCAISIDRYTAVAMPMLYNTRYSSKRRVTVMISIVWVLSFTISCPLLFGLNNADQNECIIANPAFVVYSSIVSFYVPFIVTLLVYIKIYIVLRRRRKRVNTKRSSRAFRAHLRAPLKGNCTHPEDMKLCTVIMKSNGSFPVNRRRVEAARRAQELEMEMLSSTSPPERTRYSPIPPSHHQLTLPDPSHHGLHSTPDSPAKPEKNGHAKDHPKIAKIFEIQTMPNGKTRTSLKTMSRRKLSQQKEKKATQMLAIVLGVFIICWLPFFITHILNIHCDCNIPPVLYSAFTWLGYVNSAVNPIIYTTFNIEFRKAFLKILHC

Sequence of 5-HT2A receptor (P28223 whole entry): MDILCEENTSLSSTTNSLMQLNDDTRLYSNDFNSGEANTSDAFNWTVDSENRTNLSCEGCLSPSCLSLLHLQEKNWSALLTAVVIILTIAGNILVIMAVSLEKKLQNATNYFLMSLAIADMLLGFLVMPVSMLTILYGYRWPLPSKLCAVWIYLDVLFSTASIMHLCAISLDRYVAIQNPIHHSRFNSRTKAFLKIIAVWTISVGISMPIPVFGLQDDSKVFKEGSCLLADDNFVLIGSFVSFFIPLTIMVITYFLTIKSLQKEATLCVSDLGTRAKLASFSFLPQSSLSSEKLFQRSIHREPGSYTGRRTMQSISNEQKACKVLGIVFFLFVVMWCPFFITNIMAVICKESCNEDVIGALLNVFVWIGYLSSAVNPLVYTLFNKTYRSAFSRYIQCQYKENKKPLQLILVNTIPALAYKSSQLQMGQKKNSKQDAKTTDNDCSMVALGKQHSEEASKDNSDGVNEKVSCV
Sequence of 5-HT1B receptor (P28222 whole entry): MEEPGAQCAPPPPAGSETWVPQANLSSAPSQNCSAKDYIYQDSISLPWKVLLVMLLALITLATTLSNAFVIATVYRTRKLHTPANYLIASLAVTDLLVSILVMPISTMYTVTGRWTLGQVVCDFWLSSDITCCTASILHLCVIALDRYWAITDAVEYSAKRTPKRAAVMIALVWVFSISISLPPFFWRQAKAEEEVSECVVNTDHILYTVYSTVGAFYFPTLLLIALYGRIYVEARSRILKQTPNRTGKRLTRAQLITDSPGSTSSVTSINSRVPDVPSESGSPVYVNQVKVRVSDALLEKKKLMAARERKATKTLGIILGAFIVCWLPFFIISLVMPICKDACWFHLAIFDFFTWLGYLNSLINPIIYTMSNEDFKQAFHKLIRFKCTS
Sequence of D5 receptor (P21918 whole entry): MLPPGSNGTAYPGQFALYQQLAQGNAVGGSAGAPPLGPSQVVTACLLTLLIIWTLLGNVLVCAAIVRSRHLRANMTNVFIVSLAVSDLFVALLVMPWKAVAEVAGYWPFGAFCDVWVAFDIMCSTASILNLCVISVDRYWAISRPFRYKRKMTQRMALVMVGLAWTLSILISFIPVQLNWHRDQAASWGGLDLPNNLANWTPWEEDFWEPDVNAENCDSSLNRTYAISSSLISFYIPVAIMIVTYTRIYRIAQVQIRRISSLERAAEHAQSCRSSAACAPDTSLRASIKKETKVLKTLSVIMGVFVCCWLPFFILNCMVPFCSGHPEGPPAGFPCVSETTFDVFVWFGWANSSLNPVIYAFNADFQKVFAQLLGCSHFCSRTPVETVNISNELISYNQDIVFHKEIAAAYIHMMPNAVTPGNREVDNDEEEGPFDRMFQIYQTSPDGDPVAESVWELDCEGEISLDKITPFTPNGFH
Sequence of 5-HT6 receptor (P50406 whole entry): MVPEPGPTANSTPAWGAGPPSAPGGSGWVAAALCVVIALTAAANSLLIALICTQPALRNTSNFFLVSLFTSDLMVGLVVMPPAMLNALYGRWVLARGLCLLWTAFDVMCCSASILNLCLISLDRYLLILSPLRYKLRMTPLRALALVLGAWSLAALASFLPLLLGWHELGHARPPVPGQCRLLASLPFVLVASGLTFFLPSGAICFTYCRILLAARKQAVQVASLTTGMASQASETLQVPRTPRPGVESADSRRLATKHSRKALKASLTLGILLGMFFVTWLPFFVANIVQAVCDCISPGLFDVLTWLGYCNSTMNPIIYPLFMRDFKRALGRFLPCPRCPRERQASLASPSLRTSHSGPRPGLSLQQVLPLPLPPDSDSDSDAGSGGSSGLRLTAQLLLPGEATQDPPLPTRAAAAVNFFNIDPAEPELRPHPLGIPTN
Sequence of D3 receptor (P35462 whole entry): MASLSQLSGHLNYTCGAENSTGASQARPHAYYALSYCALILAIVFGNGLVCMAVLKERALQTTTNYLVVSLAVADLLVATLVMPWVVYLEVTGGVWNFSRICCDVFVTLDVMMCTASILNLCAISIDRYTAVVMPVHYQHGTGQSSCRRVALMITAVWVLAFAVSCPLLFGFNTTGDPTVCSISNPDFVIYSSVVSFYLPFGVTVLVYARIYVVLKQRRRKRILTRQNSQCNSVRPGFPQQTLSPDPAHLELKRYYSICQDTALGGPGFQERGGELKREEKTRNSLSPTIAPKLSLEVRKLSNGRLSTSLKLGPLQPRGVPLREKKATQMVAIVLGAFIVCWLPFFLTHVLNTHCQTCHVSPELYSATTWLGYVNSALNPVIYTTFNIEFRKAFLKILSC
Sequence of 5-HT5A receptor (P47898 whole entry): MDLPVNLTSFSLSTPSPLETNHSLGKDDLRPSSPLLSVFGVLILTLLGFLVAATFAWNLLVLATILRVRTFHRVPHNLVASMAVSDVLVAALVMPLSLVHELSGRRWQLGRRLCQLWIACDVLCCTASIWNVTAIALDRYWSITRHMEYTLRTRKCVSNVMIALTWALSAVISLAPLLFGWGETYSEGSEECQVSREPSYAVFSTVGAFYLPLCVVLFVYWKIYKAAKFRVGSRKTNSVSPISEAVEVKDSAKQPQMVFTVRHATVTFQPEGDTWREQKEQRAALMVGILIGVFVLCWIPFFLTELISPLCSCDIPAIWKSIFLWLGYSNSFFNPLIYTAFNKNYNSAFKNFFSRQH
Sequence of D1 receptor (P21728 whole entry): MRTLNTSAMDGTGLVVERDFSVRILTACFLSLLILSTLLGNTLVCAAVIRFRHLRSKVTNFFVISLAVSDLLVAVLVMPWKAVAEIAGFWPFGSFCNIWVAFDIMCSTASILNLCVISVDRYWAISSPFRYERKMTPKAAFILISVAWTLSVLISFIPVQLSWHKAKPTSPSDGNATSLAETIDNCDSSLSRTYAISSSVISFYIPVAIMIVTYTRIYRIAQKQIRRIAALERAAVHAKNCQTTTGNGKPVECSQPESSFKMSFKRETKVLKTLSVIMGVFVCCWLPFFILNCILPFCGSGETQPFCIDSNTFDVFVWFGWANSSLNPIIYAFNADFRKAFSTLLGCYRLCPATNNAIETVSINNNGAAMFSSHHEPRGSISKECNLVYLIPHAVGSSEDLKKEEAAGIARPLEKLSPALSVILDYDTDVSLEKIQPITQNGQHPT

SMILES	Ki (5-HT6 receptor)	Ki (D1 receptor)	Ki (α2A adrenergic receptor)	inhibition at 10 µM (D5 receptor)	Ki (D3 receptor)	Ki (5-HT1B receptor)	inhibition at 10 µM (α1B adrenergic receptor)	Ki (α1A adrenergic receptor)	Ki (5-HT5A receptor)	inhibition at 10 µM (D4 receptor)	Ki (α2C adrenergic receptor)	Ki (α2B adrenergic receptor)	Ki (5-HT1A receptor)	Ki (5-HT2A receptor)	5-HT6 selectivity versus the other receptors tested (5-HT6 receptor)	Ki (D2 receptor)	Ki (α1B adrenergic receptor)	also measured
Oc1cc2c3c(c1O)-c1ccccc1C3CNCC2 (stereo not shown) [Compound 11, 2,3,4,11b-tetrahydro-1H-fluoreno[9,1-cd]azepine-6,7-diol]	0.038 µM	8.82 µM	2.59 µM	< 10%	2.92 µM	0.451 µM	< 10%	3.2 µM	0.244 µM	< 10%	1.11 µM	2.2 µM	0.151 µM	1.56 µM				
COc1cc2c3c(c1OC)-c1ccccc1C3CN(C)CC2 (stereo not shown) [Compound 12, 6,7-dimethoxy-2-methyl-2,3,4,11b-tetrahydro-1H-fluoreno[9,1-cd]azepine]	0.005 µM	2.46 µM	1.17 µM	< 10%	0.079 µM			2.86 µM	0.286 µM	< 10%	0.472 µM			0.811 µM	at least 15 fold	0.636 µM	5.87 µM	inhibition at 10 µM (5-HT1B receptor; read-out: Ki 5-HT1B): < 10%; inhibition at 10 µM (α2B adrenergic receptor; read-out: Ki α2B): < 10%; inhibition at 10 µM (5-HT1A receptor; read-out: Ki 5-HT1A): < 10%
COc1cc2c3c(c1OC)-c1ccccc1C3CNCC2 (stereo not shown) [Compound 10, 6,7-dimethoxy-2,3,4,11b-tetrahydro-1H-fluoreno[9,1-cd]azepine]	0.005 µM		1.6 µM	< 10%	0.415 µM	0.255 µM		0.545 µM	0.578 µM	< 10%	0.774 µM	1.12 µM	0.11 µM	1.68 µM	at least 15 fold	0.78 µM	2.59 µM	inhibition at 10 µM (D1 receptor; read-out: Ki D1): < 10%
CN1CCc2cc(O)c(O)c3c2C(C1)c1ccccc1-3 (stereo not shown) [Compound 13, 2-methyl-2,3,4,11b-tetrahydro-1H-fluoreno[9,1-cd]azepine-6,7-diol]	0.123 µM	0.865 µM		< 10%		1.03 µM	< 10%	> 10 µM	0.363 µM	< 10%	1.96 µM	5.82 µM	0.393 µM	0.352 µM				inhibition at 10 µM (α2A adrenergic receptor; read-out: Ki α2A): < 10%; inhibition at 10 µM (D2 receptor; read-out: Ki D2): < 10%; inhibition at 10 µM (D3 receptor; read-out: Ki D3): < 10%
